Some test systems named below: SR leukemia; RPMI-8226 leukemia; IGROV1 ovarian; HCT-116 colon; SF-268 CNS; NCI-H23 lung; HOP-62 NSCLC; MOLT-4 leukemia; A498 renal; OVCAR-4 ovarian; T-47D breast.
Holding throughout (experiment): NCI tumour cell line growth inhibition, 48 h

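Five compound concentrations were applied to cells in 96-well plates for 48 hours; endpoints were derived by simple linear interpolation of the resulting dose-response curve. Definition used: TGI = concentration required for complete inhibition of growth.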 Where a SMILES comes first, the peptide text is derived from it. [ ]: non-standard residue; d: D form. The star is where a group is joined. ξ: configuration not given here. ξW = NC(Cc1c[nH]c2ccccc12)C(=O)O; X30 = O=C(O)[C@H]1CCC[C@H]1N*; ξF = NC(Cc1ccccc1)C(=O)O; Boc = CC(C)(C)OC(=O)*; ξK = NCCCCC(N)C(=O)O; ξT = CC(O)C(N)C(=O)O; tBu = CC(C)(C)* Bounds are passed on as bounds.

Regarding `Clc1ccc2c(Cl)nc(-c3ccccc3)nc2c1`, the TGI in the assay on SR leukemia was > 100 µM; in the assay on RPMI-8226 leukemia, 55.3 µM; in the assay with IGROV1 ovarian, > 100 µM; with HCT-116 colon, > 100 µM; with SF-268 CNS, > 100 µM; in the assay on NCI-H23 lung, 35.9 µM. Besides, the figures for the TGI in the assay with HOP-62 NSCLC, in the assay with MOLT-4 leukemia and in the assay with A498 renal were > 100 µM, 84.5 µM and > 100 µM, respectively.
As for `Nc1ccc(-c2nc3ccccc3s2)cc1F`, the TGI in the assay on SR leukemia was 53.9 µM; in the assay with IGROV1 ovarian it was > 100 µM; in the assay with HCT-116 colon, 32.9 µM; in the assay with SF-268 CNS, > 100 µM; in the assay with NCI-H23 lung, > 100 µM; in the assay on OVCAR-4 ovarian, > 100 µM. For the same compound, the values for the TGI in the assay on HOP-62 NSCLC, in the assay with MOLT-4 leukemia and in the assay on A498 renal were > 100 µM, 31.9 µM and 4.46 µM, respectively.
On to `Cc1cc(=O)[nH]c(NN2C(Cl)C(=O)C2c2c(O)ccc3ccccc23)n1` (stereo not drawn), for which the TGI is 72.7 µM in the assay with SR leukemia; 53.5 µM in the assay on RPMI-8226 leukemia; > 100 µM with IGROV1 ovarian; 48.8 µM with HCT-116 colon; > 100 µM in the assay with SF-268 CNS; 39.7 µM with NCI-H23 lung. Besides, the TGI in the assay with OVCAR-4 ovarian came out at 51.7 µM; with HOP-62 NSCLC it was 77 µM; in the assay on MOLT-4 leukemia, 64.1 µM.
On to `Nc1ccc(-c2nc3ccc(Cc4ccc5nc(-c6ccc(N)cc6)oc5c4)cc3o2)cc1`, for which the TGI in the assay on SR leukemia is 41.2 µM; in the assay on RPMI-8226 leukemia, > 100 µM; with HCT-116 colon it was > 100 µM; in the assay on SF-268 CNS, > 100 µM; in the assay on NCI-H23 lung it was > 100 µM; with OVCAR-4 ovarian, > 100 µM. In addition, the TGI in the assay with MOLT-4 leukemia and in the assay with A498 renal was > 100 µM in each case.
`CC(OC(C)(C)C)C(NC(=O)C(CCCCNC(=O)OC(C)(C)C)NC(=O)C(Cc1c[nH]c2ccccc12)NC(=O)C(N)Cc1ccccc1)C(=O)NC(Cc1ccccc1)C(=O)N[C@@H]1CCC[C@@H]1C(=O)O` (stereo partly drawn) (H-[ξF][ξW][ξK](Boc)[ξT](tBu)[ξF]-X30): the TGI with SR leukemia, with RPMI-8226 leukemia, with T-47D breast, in the assay on IGROV1 ovarian, in the assay with HCT-116 colon and in the assay on SF-268 CNS was > 100 µM throughout. Further, the TGI in the assay on NCI-H23 lung, in the assay with OVCAR-4 ovarian, in the assay with HOP-62 NSCLC and in the assay with MOLT-4 leukemia was > 100 µM throughout.
Turning to `N#Cc1nc(C2SCCCS2)oc1N`, the TGI in the assay on SR leukemia, in the assay on RPMI-8226 leukemia, in the assay with IGROV1 ovarian, with HCT-116 colon, with SF-268 CNS and in the assay on OVCAR-4 ovarian was > 100 µM in each case. Also, the TGI with HOP-62 NSCLC, in the assay on MOLT-4 leukemia and with A498 renal was > 100 µM in each case.
In the case of `NC(N)=NCCCC(NCc1c2ccccc2[n+]([O-])c2ccccc12)C(=O)O` (stereo not drawn), the TGI in the assay with RPMI-8226 leukemia was 96.2 µM; with IGROV1 ovarian, > 100 µM; in the assay on HCT-116 colon, > 100 µM; with SF-268 CNS, > 100 µM; in the assay with NCI-H23 lung, > 100 µM; with OVCAR-4 ovarian it was > 100 µM. The TGI with HOP-62 NSCLC, with MOLT-4 leukemia and in the assay on A498 renal was > 100 µM throughout.
With `COc1cc(/C=C2/C(=O)N=C(NC(C)=O)N2C)ccc1OC(C)=O`, the TGI in the assay on T-47D breast, in the assay on IGROV1 ovarian, in the assay on HCT-116 colon, with NCI-H23 lung, in the assay with OVCAR-4 ovarian and in the assay on HOP-62 NSCLC was > 100 µM in each case. In the assay with MOLT-4 leukemia, the TGI is > 100 µM.
Regarding `O=C(Nc1ccc(N2C(=O)CSC2c2cccs2)cc1)c1ccc(N2C(=O)CSC2c2cccs2)cc1` (stereo not drawn), the TGI in the assay with T-47D breast was > 100 µM; with IGROV1 ovarian it was > 100 µM; in the assay on HCT-116 colon it was > 100 µM; with SF-268 CNS, > 100 µM; with NCI-H23 lung, 96.4 µM; in the assay on OVCAR-4 ovarian, > 100 µM. For the same compound, the TGI in the assay with HOP-62 NSCLC and in the assay on MOLT-4 leukemia was > 100 µM each time.
For `Cc1ccc(C2SC(N)=Nc3c2c(C)nn3C(=O)c2ccc(Cl)cc2)cc1` (stereo not drawn), the TGI in the assay with SR leukemia, with RPMI-8226 leukemia, with T-47D breast, with IGROV1 ovarian, in the assay on HCT-116 colon and in the assay on SF-268 CNS was > 10 µM in each case. Also, the TGI in the assay with NCI-H23 lung, in the assay with OVCAR-4 ovarian, in the assay with HOP-62 NSCLC and in the assay with MOLT-4 leukemia was > 10 µM each time.
Turning to `O=C1c2cscc2C(=O)c2c(OCc3ccccc3)ccc(OCc3ccccc3)c21`, the TGI in the assay on SR leukemia, with RPMI-8226 leukemia, with T-47D breast, with IGROV1 ovarian, with HCT-116 colon and with SF-268 CNS was > 100 µM throughout. Further, the TGI with NCI-H23 lung, in the assay with OVCAR-4 ovarian, in the assay on HOP-62 NSCLC and in the assay on MOLT-4 leukemia was > 100 µM throughout.
With `CCCC(=O)[O-].CCCC(=O)[O-].N.N.N.N.[Co+3].[O-][Cl+3]([O-])([O-])[O-]`, the TGI with RPMI-8226 leukemia, in the assay on IGROV1 ovarian, with HCT-116 colon, with SF-268 CNS, in the assay with NCI-H23 lung and with OVCAR-4 ovarian was > 100 µM throughout. In addition, the TGI in the assay on HOP-62 NSCLC, in the assay with MOLT-4 leukemia and in the assay with A498 renal was > 100 µM each time.
`Cc1nc2ccc(S(=O)(=O)Nc3ccccc3Cl)cc2c(=O)n1NC(=O)CNc1ccccc1Cl`: the TGI in the assay on SR leukemia, in the assay with RPMI-8226 leukemia, with IGROV1 ovarian, in the assay with HCT-116 colon, in the assay on SF-268 CNS and with NCI-H23 lung was > 100 µM each time. Further, the TGI in the assay with OVCAR-4 ovarian, in the assay on HOP-62 NSCLC and with MOLT-4 leukemia was > 100 µM each time.
On to `Cc1n(CC(C)C)c2c([n+]1CC(=O)c1ccc([N+](=O)[O-])cc1)C(=O)c1ccccc1C2=O`, for which the TGI is 0.757 µM with RPMI-8226 leukemia; 0.0102 µM in the assay with IGROV1 ovarian; < 0.0391 µM in the assay on SF-268 CNS; < 0.0142 µM with NCI-H23 lung; 0.055 µM in the assay with OVCAR-4 ovarian; 1.15 µM in the assay with HOP-62 NSCLC. The TGI with MOLT-4 leukemia amounted to 0.0742 µM; in the assay with A498 renal, 2.21 µM.
For `COc1cc(O)c2c(c1O)C(=O)c1cc(C)ncc1C2=O`, the TGI was > 50 µM in the assay with RPMI-8226 leukemia; > 50 µM with IGROV1 ovarian; > 50 µM with HCT-116 colon; > 50 µM in the assay with SF-268 CNS; 27.2 µM with NCI-H23 lung; > 50 µM with OVCAR-4 ovarian. In addition, the TGI in the assay with HOP-62 NSCLC, in the assay on MOLT-4 leukemia and with A498 renal was > 50 µM in each case.
